In US8580812B2, “Heteroaryl amide analogues as P2X7 antagonists” (H. Lundbeck A/S, priority 2007, dated 2013) one finds IC50 data, which are given here for 24 compounds.

A value given as a limit tells only on which side of the number the result lay.

The assay has as its target T1, P2X7 (Homo sapiens, UniProt Q99572).
T1 construct: host or cells: SH-SY5Y
T1 sequence (Q99572 1-595): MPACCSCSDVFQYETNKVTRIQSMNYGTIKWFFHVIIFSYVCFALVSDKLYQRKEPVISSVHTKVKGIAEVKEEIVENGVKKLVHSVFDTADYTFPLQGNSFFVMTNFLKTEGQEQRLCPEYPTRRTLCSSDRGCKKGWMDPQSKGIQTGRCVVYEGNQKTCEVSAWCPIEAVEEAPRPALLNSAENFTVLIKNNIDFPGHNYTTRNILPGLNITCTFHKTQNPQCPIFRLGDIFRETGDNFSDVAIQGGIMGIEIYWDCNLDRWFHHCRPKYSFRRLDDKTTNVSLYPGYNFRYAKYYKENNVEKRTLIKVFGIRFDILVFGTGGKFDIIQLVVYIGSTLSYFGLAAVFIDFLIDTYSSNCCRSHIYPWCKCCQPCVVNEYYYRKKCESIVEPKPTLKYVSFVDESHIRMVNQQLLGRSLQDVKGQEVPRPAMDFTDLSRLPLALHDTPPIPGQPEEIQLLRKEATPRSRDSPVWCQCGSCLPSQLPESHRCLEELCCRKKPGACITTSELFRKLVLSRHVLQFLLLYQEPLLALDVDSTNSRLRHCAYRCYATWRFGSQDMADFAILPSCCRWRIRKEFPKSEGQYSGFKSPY
Kind of assay: High Throughput P2X7 Calcium Mobilization Assay (Example 4A), antagonist activity. It is filed as cell-based. The note with it: SH-SY5Y cells, 50% decrease in fluorescence response of cells exposed to 80 μM BzATP. On the procedure:
A. High Throughput P2X7 Calcium Mobilization Assay
SH-SY5Y cells, ATCC Number CRL-2266, (American Type Culture Collection, Manassas, Va.) are cultured under DMEM/High medium supplemented with 10% FBS, and 10 mM HEPES (Invitrogen Corp., Carlsbad, Calif.) in 5% CO2 and at 37° C. One day prior to the experiment, cells are plated at a density of 100,000 cells/well in a 96 well black/clear TC plate (Corning® Costar®, Sigma-Aldrich Co., St. Louis, Mo.). At the beginning of the experiment, the culture medium is removed and cells are incubated with 50 μL of 2.3 μM Fluo-4 AM dye (Invitrogen Corp.) in the assay solution (5 mM KCl, 9.6 mM NaH2PO4.H2O, 25 mM HEPES, 280 mM Sucrose, 5 mM Glucose, and 0.5 mM CaCl2; pH is adjusted to 7.4 with NaOH) for an hour at 37° C. After one hour dye incubation, wells are rinsed once with 50 μL assay solution, and are then incubated for an hour at room temperature with 100 μL assay solution containing the test compound. The final concentration of test compound generally ranges from 1 to 2500 nM; for positive control cells, no test compound is added. After the one hour incubation, plates are transferred to a FLIPR^TETRA instrument (Molecular Devices, Sunnyvale, Calif.) for calcium mobilization analysis.
For determination of antagonist activity, 50 μL of P2X7 agonist (2′(3′)-O-(4-benzoyl-benzoyl)adenosine 5′-triphosephate (BzATP; Sigma-Aldrich) in the assay solution is transferred using the FLIPR into the plate, such that the final agonist concentration is 80 μM (about EC50). In negative control cells, 50 μL of assay solution without agonist is added at this stage. The peak fluorescence signal over a 2 minute period is then measured.
First, the average maximum relative fluorescent unit (RFU) response from the negative control wells (no agonist) is subtracted from the maximum response detected for each of the other experimental wells. Second, average maximum RFU response is calculated for the positive control wells (agonist wells). Then, percent inhibition for each compound tested is calculated using the equation: Percent Inhibition=100−100×(Peak Signal in Test Cells/Peak Signal in Control Cells) The % inhibition data is plotted as a function of test compound concentration and test compound IC50 is determined using, for example, KALEIDAGRAPH software (Synergy Software, Reading, Pa.) best fit of the data to the equation: y=m1*(1/(1+(m2/m0)^m3)) where y is the percent inhibition, m0 is […], m1 is the maximum RFU, m2 corresponds to the test compound IC50 (the concentration required to provide a 50% decrease, relative to the response observed in the presence of agonist and without antagonist) and m3 is the Hill coefficient.
In general terms: Calcium assays in cells follow changes in intracellular calcium, usually with a dye or a luminescent sensor.
In the case of `COCCNC(=O)c1cc2c(C(=O)NCC34CC5CC(CC(C5)C3)C4)cccn2n1` [Compound 42, 4-N-(adamantan-1-ylmethyl)-2-N-(2-methoxyethyl)pyrazolo [1,5-a]pyridine-2,4-dicarboxamide], the IC50 (usually the concentration that gives 50% inhibition) is at most 2 µM.
Then `CN(Cc1cncn1C)C(=O)c1cc2c(C(=O)NCC34CC5CC(CC(C5)C3)C4)cccn2n1` [Compound 26, 4-N-(adamantan-1-ylmethyl)-2-N-methyl-2-N-[(1-methyl-1H-imidazol-5-yl)methyl]pyrazolo[1,5-a]pyridine-2,4-dicarboxamide], with at most 2 µM.
Then `CN(CC(F)F)C(=O)Cc1cc2c(C(=O)NCC34CC5CC(CC(C5)C3)C4)cccn2n1` [Compound 78, N-(adamantan-1-ylmethyl)-2-{2-[(2,2-difluoroethyl)(methyl)amino]-2-oxoethyl}pyrazolo[1,5-a]pyridine-4-carboxamide], with at most 2 µM; and `CCOC(=O)CN(C)C(=O)c1cc2c(C(=O)NCC34CC5CC(CC(C5)C3)C4)cccn2n1` [Compound 23, ethyl N-({4-[(adamantan-1-ylmethyl)carbamoyl]pyrazolo[1,5-a]pyridin-2-yl}carbonyl)-N-methylglycinate], with at most 2 µM.
Then `COCCCNC(=O)c1cc2c(C(=O)NCC34CC5CC(CC(C5)C3)C4)cccn2n1` [Compound 38, 4-N-(adamantan-1-ylmethyl)-2-N-(3-methoxypropyl)pyrazolo [1,5-a]pyridine-2,4-dicarboxamide], with at most 2 µM; and `O=C(O)CC(Cc1ccccc1)c1cc2c(C(=O)NCC34CC5CC(CC(C5)C3)C4)cccn2n1` (stereo not drawn) [Compound 107, 3-{4-[(adamantan-1-ylmethyl)carbamoyl]pyrazolo[1,5-a]pyridin-2-yl}-4-phenylbutanoic acid], with at most 2 µM; and `O=C(NCC1(c2ccc(Cl)cc2)CCCCC1)c1cccn2nc(C(Cc3ccccc3)C(=O)O)cc12` (stereo not drawn) [Compound 104, 2-[4-({[1-(4-chlorophenyl)cyclohex-yl]methyl}carbamoyl)pyrazolo[1,5-a]pyridin-2-yl]-3-phenyl propanoic acid], with at most 2 µM.
On to `NC(=O)c1ccc(C(=O)c2ccc3c(C(=O)NCC45CC6CC(CC(C6)C4)C5)cccn23)cc1` [Compound 110, N-(adamantan-1-ylmethyl)-3-(4-carbamoylbenzoyl) indolizine-8-carboxamide], for which the IC50 is at most 2 µM.
Then `O=C(NC1CCOCC1)c1cc2c(C(=O)NCC34CC5CC(CC(C5)C3)C4)cccn2n1` [Compound 35, 4-N-(adamantan-1-ylmethyl)-2-N-(tetrahydro-2H-pyran-4-yl)pyrazolo[1,5-a]pyridine-2,4-dicarboxamide], with at most 2 µM.
For `O=C(NCC12CC3CC(CC(C3)C1)C2)c1cccn2nc(C(=O)N3CCn4cncc4C3)cc12` [Compound 20, N-(adamantan-1-ylmethyl)-2-(5,6-dihydroimidazo[1,5-a]pyrazin-7(8H)-ylcarbonyl)pyrazolo [1,5-a]pyridine-4-carboxamide], the IC50 was at most 2 µM.
Then `O=C(NCC(F)(F)F)c1cc2c(C(=O)NCC34CC5CC(CC(C5)C3)C4)cccn2n1` [Compound 64, 4-N-(adamantan-1-ylmethyl)-2-N-(2,2,2-trifluoroethyl)pyrazolo [1,5-a]pyridine-2,4-dicarboxamide], with at most 2 µM; and `O=C(NCC12CC3CC(CC(C3)C1)C2)c1cccn2nc(CC3=NCCN3)cc12` [Compound 89, N-(adamantan-1-ylmethyl)-2-(4,5-dihydro-1H-imidazol-2-ylmethyl)pyrazolo[1,5-a]pyridine-4-carboxamide], with at most 2 µM.
In the case of `O=C(NC1CCS(=O)(=O)C1)c1cc2c(C(=O)NCC34CC5CC(CC(C5)C3)C4)cccn2n1` (stereo not drawn) [Compound 82, 4-N-(adamantan-1-ylmethyl)-2-N-(1,1-dioxidotetrahydrothio-phen-3-yl)pyrazolo[1,5-a]pyridine-2,4-dicarboxamide], the 50% inhibitory concentration (IC50) was at most 2 µM.
Then `CN(Cc1cnccn1)C(=O)c1cc2c(C(=O)NCC34CC5CC(CC(C5)C3)C4)cccn2n1` [Compound 48, 4-N-(adamantan-1-ylmethyl)-2-N-methyl-2-N-(pyrazin-2-ylmethyl)pyrazolo[1,5-a]pyridine-2,4-dicarboxamide], with at most 2 µM; and `O=C(NCC1(c2ccc(C(F)(F)F)cc2)CCCCC1)c1cccn2nc(C(=O)N3CCOCC3)cc12` [Compound 94, 2-(morpholin-4-ylcarbonyl)-N-({1-[4-(trifluoromethyl)phenyl]cyclohexyl}methyl) pyrazolo[1,5-a]pyridine-4-carboxamide], with at most 2 µM.
Then `O=C(NCC12CC3CC(CC(C3)C1)C2)c1cccn2nc(C(=O)N3CCOCC3)cc12` [Compound 22, N-(adamantan-1-ylmethyl)-2-(morpholin-4-ylcarbonyl)pyrazolo [1,5-a]pyridine-4-carboxamide], with at most 2 µM.
Then `CN(Cc1cccnc1)Cc1cc2c(C(=O)NCC34CC5CC(CC(C5)C3)C4)cccn2n1` [Compound 54, N-(adamantan-1-ylmethyl)-2-{[methyl(pyridin-3-ylmethyl)amino]methyl} pyrazolo[1,5-a]pyridine-4-carboxamide], with at most 2 µM; and `N[C@@H]1CCN(C(=O)c2cc3c(C(=O)NCC(CC4CCCCC4)c4ccccc4)cccn3n2)C1` (stereo partly drawn) [Compound 72, 2-{[(3R)-3-aminopyrrolidin-1-yl]carbonyl}-N-(3-cyclohexyl-2-phenylpropyl)pyrazolo [1,5-a]pyridine-4-carboxamide], with at most 2 µM; and `CC(C)CC(CNC(=O)c1cccn2nc(C(=O)N3CCC[C@@H](N)C3)cc12)c1ccccc1` (stereo partly drawn) [Compound 43, 2-{[(3R)-3-aminopiperidin-1-yl]carbonyl}-N-(4-methyl-2-phenylpentyl)pyrazolo [1,5-a]pyridine-4-carboxamide], with at most 2 µM.
For `O=C1CN(C(=O)c2cc3c(C(=O)NCC45CC6CC(CC(C6)C4)C5)cccn3n2)CCN1` [Compound 32, N-(adamantan-1-ylmethyl)-2-[(3-oxopiperazin-1-yl)carbonyl]pyrazolo [1,5-a]pyridine-4-carboxamide], the 50% inhibitory concentration (IC50) is at most 2 µM.
Regarding `CN(Cc1ccccc1F)C(=O)c1cc2c(C(=O)NCC34CC5CC(CC(C5)C3)C4)cccn2n1` [Compound 65, 4-N-(adamantan-1-ylmethyl)-2-N-(2-fluorobenzyl)-2-N-methylpyrazolo[1,5-a]pyridine-2,4-dicarboxamide], the IC50 was at most 2 µM.
Then `Cn1ncc2c1CCN(C(=O)c1cc3c(C(=O)NCC45CC6CC(CC(C6)C4)C5)cccn3n1)C2` [Compound 34, N-(adamantan-1-ylmethyl)-2-[(1-methyl-1,4,6,7-tetrahydro-5H-pyrazolo[4,3-c]pyridin-5-yl)carbonyl]pyrazolo [1,5-a]pyridine-4-carboxamide], with at most 2 µM; and `N[C@@H]1CCN(C(=O)c2cc3c(C(=O)NCC4(c5cccnc5)CCCCC4)cccn3n2)C1` [Compound 57, 2-{[(3R)-3-aminopyrrolidin-1-yl]carbonyl}-N-[(1-pyridin-3-ylcyclohexyl)methyl] pyrazolo[1,5-a]pyridine-4-carboxamide], with at most 2 µM; and `CN(Cc1ccccn1)C(=O)c1cc2c(C(=O)NCC34CC5CC(CC(C5)C3)C4)cccn2n1` [Compound 50, 4-N-(adamantan-1-ylmethyl)-2-N-methyl-2-N-(pyridin-2-ylmethyl)pyrazolo[1,5-a]pyridine-2,4-dicarboxamide], with at most 2 µM.
